The values that follow come from a melting point compilation (Tetko et al.; mined from patent text by program, amines drawn as free bases though some values may be those of a salt).

Structures are written as SMILES.

Broadly, the melting point is the temperature of the solid-liquid transition. For the molecule `COc1ccc2c(c1)C(C1CCC1)=NCC2`, the melting point lay in the range of 44 to 46 °C.

With `CCCc1c(C(=O)CC)c2ccc(C(N)=O)cc2n1Cc1ccccc1Cl`, the melting point is 151 to 152 °C.

For the molecule `CNC(=O)Cn1c(-c2ccc(C)s2)nc2cccnc21`, the melting point was 213 to 216 °C.

`CC1(C)Oc2ccc(OC(F)F)cc2[C@@H](N2CCCCC2=O)[C@@H]1O` (relative stereo) yielded a melting point of 165 °C.

Turning to `CC(C)(C)c1ccc(S(=O)(=O)Nc2nc(-c3ncccn3)nc(Cl)c2-c2cccs2)cc1`, the melting point was 130 to 132 °C.

On to `CN(C(=O)OC(C)(C)C)c1cc(Oc2ccccc2N2CCCCC2)ccc1N`, for which the melting point was 108 to 110 °C.

`COC(=O)c1ccc2cc(-c3ccc(C(C)(C)C)cc3)oc2c1`: the melting point amounted to 148 °C.

Turning to `CCOC(=O)[C@H]1O[C@@H]1C(=O)N[C@@H](CC(C)C)C(=O)c1ccccc1`, the melting point lay in the range of 118 to 119 °C.

`CCNc1cc(NS(=O)(=O)c2ccc(C(C)(C)C)cc2)nc(NCC)n1` displayed a melting point of 316 to 318 °C.

On to `CCCCCCCNC(=O)N(C)c1cccc(-c2ccc(CC(Nc3ccccc3C(=O)c3ccccc3)C(=O)O)cc2)c1` (stereo not drawn), for which the melting point is 105 °C.

As to `NC(=NCC(F)(F)F)Nc1cncc(SCCCC(=O)Nc2ccccc2)n1`, the melting point was 165 to 167 °C.

In turn, `Cn1cc(S(=O)(=O)Cl)c(=O)c2ccc(Cl)cc21` showed a melting point of over 300 °C.

As for `COc1ccc(C(=O)c2ccoc2)c(Cl)c1Cl`, the melting point fell in the range of 118 to 122 °C.

The molecule `CCOC(=O)CC[C@H](NC(=O)c1ccc(CNCc2cnc3nc(NC(=O)C(C)(C)C)nc(O)c3c2)cc1)C(=O)OCC` displayed a melting point of 149 to 151 °C.

In the case of `CC(O)CNc1c([N+](=O)[O-])cnc2ccccc12` (stereo not drawn), the melting point lay within 209 to 210 °C.

For `O=C(O)C1Cc2cc3c(-c4ccc(F)cc4)noc3c(Cl)c2O1` (stereo not drawn), the melting point is 225 to 226 °C.

On to `CCn1c(=O)c(C(N)=O)c(N)c2ccc(C)nc21`, for which the melting point is 263 to 266 °C.

In turn, `Cc1nc(-c2cccc(C(=O)c3ccccc3)c2)sc1C(=O)O` registered a melting point of 213 to 215 °C.

Turning to `CCOc1cc(OCCCc2cn(-c3ccc(C(F)(F)F)cn3)nc2C)ccc1CCC(=O)O`, the melting point is 129 to 130 °C.

As to `C/C(=N\OC(=O)[C@@H]1CCCN(C(=O)OC(C)(C)C)C1)[C@H]1CC[C@H]2[C@@H]3CCC4=CC(=O)CC[C@]4(C)[C@H]3CC[C@]12C`, the melting point lay in the range of 79 to 81 °C.

The molecule `COc1ccc2cc(-c3ccnc(N(C)C)n3)cc(NC3CCN(c4ncnc5[nH]nc(Br)c45)CC3)c2c1` returned a melting point of 167 to 172 °C.

As to `CCNC(=O)C(C)Oc1ccc(N(C)c2nc3cc(Cl)ccc3o2)cc1` (stereo not drawn), the melting point lay within 141 to 142 °C.

Molecule `CN(C)CCc1c(CSc2ccccc2)c2ccccc2n1C` registered a melting point of 58 to 60 °C.

`Oc1ccc(Oc2ccc(Oc3ccc(O)cc3)cc2)cc1` yielded a melting point of 187 to 189 °C.

Regarding `CCOc1ccc2c(c1)n(C1CCOCC1)c(=O)n2S(=O)(=O)c1ccc(C(=O)O)cc1OC`, the melting point was 255 °C.

The molecule `Cc1c(C)c2c(c(C)c1O)CC[C@@](C)(CCBr)O2` showed a melting point of 120 °C.

`CC(C)CC1(CC(=O)NO)CC(=O)N(CCc2ccccc2)C1=O` (stereo not drawn): the melting point lay in the range of 136 to 137 °C.

With `CC(=O)CSc1ncc(C)n1C`, the melting point lay within 65 to 67 °C.

`Cc1cc(OCc2sc(-c3ccc(C(F)(F)F)cc3)nc2C)ccc1/C=C/C(=O)O` showed a melting point of 200 to 203 °C.

In turn, `N#Cc1c(-c2ccc(Cl)cc2)[nH]c(Br)c1Cl` displayed a melting point of 262 to 263 °C.

In the case of `CN1CCC(c2c(O)cc(O)c3c(=O)cc(Oc4ccccc4)oc23)C(O)C1` (stereo not drawn), the melting point stood at 112 °C.

Turning to `Cc1ccc2nc(-c3cccnc3N)n(-c3ccc(CC(=O)c4ccccc4)cc3)c2n1`, the melting point was 194 to 196 °C.

In the case of `CCC1(C)C(=CC=C2C(=O)c3ccccc3C2=C(C#N)C#N)N2CCc3cccc1c32` (stereo not drawn), the melting point was found to be 230 °C.

Molecule `COC(=O)CN1CCN(CC(=O)OC)[C@@H](C(N)=O)[C@H]1C(N)=O` showed a melting point of 172 to 173 °C.

The molecule `CC(C)(C)OC(=O)NCC(=O)OCCCNc1ccc(O)c2c1C(=O)c1c(O)cccc1C2=O` registered a melting point of 152 °C.

As to `COc1cc2c(cc1OC)NC(=O)N(CCCN(C)CCCS(=O)(=O)c1ccccc1)CC2`, the melting point lay in the range of 118 to 121 °C.

Take `COc1ccc2c(ccn3c(C)nnc23)c1`: the melting point was in the range of 183 to 184 °C.

Consider `O=[N+]([O-])c1cc(S(=O)(=O)C(F)(F)F)c(-c2ccc(Cl)cc2)[nH]1`, for which the melting point lay in the range of 174 to 180 °C.

The molecule `O=C(Nc1ccncc1)c1ccc(-c2ccc3nnn(Cc4ccc5ncccc5c4)c3n2)cc1F` registered a melting point of 217 to 219 °C.

`CC(C)c1cn(C(C)(C)C(=O)N(C)C)nc1-c1ccccc1`: the melting point was in the range of 80.5 to 82.5 °C.

In turn, `COc1cc2c(cc1OC)C(C)Cn1c-2cc(=Nc2c(C)cc(C)cc2C)n(C)c1=O` (stereo not drawn) displayed a melting point of 156 to 157 °C.

Consider `CC1(C)OC(=O)Nc2ccc(-c3cccc(F)c3)cc21`, for which the melting point was 181 to 182 °C.

Molecule `Cc1nc(NC(=O)c2ccccc2OC(F)(F)F)sc1C(=O)NCc1ccccc1` displayed a melting point of 140 to 141 °C.

Take `CN(C)CC/C=C/c1ccc2c(Nc3ccc(Sc4nccn4C)c(Cl)c3)c(C#N)cnc2c1`: the melting point fell in the range of 191 to 198 °C.

Molecule `O=C(O)C1=Cc2cc(Br)ccc2S(=O)(=O)CC1` yielded a melting point of 290 to 300 °C.

Molecule `Nc1ccn2nc(-c3cccnc3)nc2c1` gave a melting point of 228 to 233 °C.

With `COc1cc(C(=O)c2ccccn2)cc([N+](=O)[O-])c1OC`, the melting point was 113 °C.

Regarding `CNC(=O)c1ccnc(NC(=O)N2CCC3(CCc4cc(F)ccc4O3)CC2)c1`, the melting point was 175 to 176 °C.

Consider `CC1(C)C(=O)C(C)(C)c2cc(C(O)CN3CCN(c4nsc5ccccc45)CC3)ccc21` (stereo not drawn), for which the melting point is 189 to 191 °C.

`C=CCC1C=C(c2c[nH]c(-c3ccc(F)cc3)c2-c2ccncc2)CCN1C` (stereo not drawn) yielded a melting point of 218 to 220 °C.

The molecule `CC(C)NC(=O)C(=O)c1ccc(Cl)cc1` came in with a melting point of 79 °C.

In the case of `Cc1[nH]c(=O)c(C#N)c2c1CC(c1ccccn1)CC2` (stereo not drawn), the melting point was over 300 °C.

With `CC(NC(=O)C=Cc1ccccc1F)c1ccc2c(c1)N(C)CCC2` (stereo not drawn), the melting point was in the range of 60 to 63 °C.

In turn, `O=C(Nc1cccc2c1C(=O)N(CCC(=O)N1CCN(c3ccncc3)CC1)C2=O)c1ccc(Cl)s1` yielded a melting point of 167 °C.

Molecule `COC(=O)c1nc(NC(C)=O)sc1-c1ccccc1` gave a melting point of 224 to 226 °C.

In the case of `Fc1ccc(-c2cnn3cnnc3n2)cc1`, the melting point was over 300 °C.

Take `CCCCc1ncc(/C=C(\Cc2cccs2)C(=O)O)n1Cc1cc(Cl)c(C(=O)O)cc1Cl`: the melting point came out at 145 °C.

With `CCNC(=O)c1ccsc1`, the melting point was 115 to 117 °C.

The molecule `CC1SC(=O)NN=C1c1ccc2c(c1)C(=NN(C)c1ccccc1)C(=O)N2` (stereo not drawn) registered a melting point of 260 °C.

For `O=C(Oc1ccccc1Cl)c1ncn2c1[C@@H]1CCCN1C(=O)c1c(Cl)cccc1-2`, the melting point lay within 214 to 215 °C.

`CONS(=O)(=O)c1ccc(Cl)c([N+](=O)[O-])c1` yielded a melting point of 69.5 to 71 °C.

Take `CC(C)n1cc(C(=O)O)c2ccc(C(F)(F)F)cc21`: the melting point was 177 to 178 °C.

`CN1C(=O)C2(COc3cc4c(cc32)OCCO4)c2c(C(=O)O)cccc21` (stereo not drawn) returned a melting point of 297 to 299 °C.

Molecule `Cc1cccc(Nc2cc(Nc3ccc(O)cc3)ncn2)c1` yielded a melting point of 242 to 245 °C.

In the case of `CCN1C(=O)N(c2cc(OC)cc(OC)c2F)Cc2cnc(NC3CCC(O)CC3)nc21` (stereo not drawn), the melting point is 198 to 204 °C.

The molecule `CCNC(=S)NCc1cccc2c1C(=O)N(C1CCC(=O)NC1=O)C2=O` (stereo not drawn) came in with a melting point of 154 to 156 °C.

Regarding `CCOC(=O)c1c(C(C)C)nc2onc(C)c2c1-c1ccc(F)cc1`, the melting point lay within 90 to 110 °C.

On to `COc1cc(OC)cc(C(NCC(=O)Nc2c(C(C)C)cccc2C(C)C)c2ccccc2)c1` (stereo not drawn), for which the melting point was 111 to 112 °C.

As for `Cc1c(Cl)cccc1S(=O)(=O)Nc1ccc2c(c1)nc(C)n2-c1ccccc1`, the melting point lay within 254 to 256 °C.

`COc1cc(/C=C/c2ccc(F)cc2)cc(OC)c1` returned a melting point of 46 to 48 °C.

The molecule `COc1ccc(Sc2sc(S(N)(=O)=O)cc2C)cc1` showed a melting point of 107 to 110 °C.

In turn, `Cc1cc(Cl)cc2c1OCCCC2=O` displayed a melting point of 56 to 58 °C.

The molecule `CC12CCC3C(CCC4C(=O)CCCC43C)C1CCC2O` (stereo not drawn) came in with a melting point of 123 to 126 °C.

Turning to `N#Cc1c(F)cc(OCc2ccncc2)cc1OC(C(=O)O)c1ccccc1Cl` (racemic), the melting point is 135 to 139 °C.

`COc1ccc2c(c1O)C(=O)CC(c1ccc(F)cc1)=N2` yielded a melting point of 60 to 62 °C.

As to `COc1cc(C)nc(N(C)C#N)n1`, the melting point was determined as 123 °C.

Consider `Cc1cc(CN2CCOCC2)cc2c1Cc1c(-c3ccsc3)n[nH]c1-2`, for which the melting point was 232 to 233 °C.

For `O=[N+]([O-])C(CSc1cccc(Cl)c1)=C1NCCN1Cc1ccc(Cl)nc1`, the melting point worked out at 143 °C.

Consider `COc1cc2c(c(-c3ccccc3F)c1)OC(CN)C2` (stereo not drawn), for which the melting point was over 250 °C.

The molecule `Cc1nc(Cc2ccccc2)c(CO)c(CO)c1O` returned a melting point of 158 to 159 °C.

The molecule `NC1=NC(Cl)N(c2c([N+](=O)[O-])cc([N+](=O)[O-])cc2C(F)(F)F)C(Cl)=C1` (stereo not drawn) showed a melting point of 198 to 200 °C.

In the case of `CC(C)c1ccc2c(c1)OCc1ccc(C(=O)O)cc1C2=O`, the melting point was in the range of 203 to 204 °C.

As to `CSc1ccc(C(=O)CC(F)(F)F)cc1`, the melting point lay within 118 to 120 °C.

`Cc1c(C)c2c(c(C)c1OCCc1ccccc1)C(c1ccc(C(C)C)cc1)C(C)(C)O2` (stereo not drawn) returned a melting point of 72 to 74 °C.

`C=C(CC)c1cn(-c2c(Cl)cc(C(F)(F)F)cc2Cl)nc1C#N` displayed a melting point of 104 to 105 °C.

As to `O=c1cc(C(F)(F)F)ccn1-c1c(Cl)cc(C(Cl)Cl)cc1Cl`, the melting point lay within 176 to 177 °C.

As for `CCCCCCCCCCCCSCCCN=C=O`, the melting point is 91 to 92 °C.

In the case of `O=C(O)c1ccccc1OC(F)(F)C(F)F`, the melting point was in the range of 158 to 160 °C.
